In patent publication US6440680B1, “Methods of identifying modulators of prostaglandin receptor EP1” (Merck Frosst Canada, Inc., priority 1993, dated 2002):

Columns and labels:
EP1 receptor [1] = molecular target: T1, EP1 receptor (Homo sapiens, UniProt P34995, A71T/L230H); assay: [3H]PGE2 binding assay with membranes of pcDNA-EP1-transfected COS-M6 cells; parameters: expressed in transfected cells; host or cells: COS-M6 cells (membrane fraction); conditions: for rank order of potency for competition for [3H]PGE2 specific binding: FIG. 3A, 0.03 nM-10 μM competitor; for IC50: 0.5 nM [3H]PGE2, FIG. 3B, read-out: IC50 for competition for [3H]PGE2 specific binding
T1 sequence (P34995 1-402 A71T/L230H): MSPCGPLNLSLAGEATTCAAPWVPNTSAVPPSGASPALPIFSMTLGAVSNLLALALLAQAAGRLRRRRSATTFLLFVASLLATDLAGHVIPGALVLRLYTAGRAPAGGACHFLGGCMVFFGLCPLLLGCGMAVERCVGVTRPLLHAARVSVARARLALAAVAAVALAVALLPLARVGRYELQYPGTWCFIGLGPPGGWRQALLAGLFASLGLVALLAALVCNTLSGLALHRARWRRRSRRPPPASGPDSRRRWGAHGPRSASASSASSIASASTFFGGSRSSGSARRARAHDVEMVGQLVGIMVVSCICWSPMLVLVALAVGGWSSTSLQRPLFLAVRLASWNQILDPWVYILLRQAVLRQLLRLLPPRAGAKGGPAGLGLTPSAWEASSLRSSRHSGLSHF
Method: FIGS. 3A-3B—Competition for [^3H]PGE2 binding to pcDNA-EP1-transfected COS-M6 membranes: [^3H]PGE2 binding assays were performed as described in the Methods in the presence of Panel A: 0.03 nM-10 μM PGE2 (Δ), PGE1 (▪), PGF2α (□), PGD2 (●), Panel B: 3 nM-100 μM AH6809 (◯), SC19220 (Δ), and Butaprost (⋄). Butaprost and AH 6809 were generous gifts from Miles Inc. and Glaxo Group Research Ltd.
The pcDNA-EP1 plasmid was transfected into COS-M6 Cells using the DEAE-dextran method. The cells were maintained in culture for 72 h, then harvested and membranes prepared by differential centrifugation (1000×g or 10 min, then 100,000×g for 30 min) following lysis of the cells by nitrogen cavitation (Frey, et al., 1993). [3H]Prostaglandin E2 ([^3H]PGE2) binding assays were performed in 10 mM potassium phosphate (pH 6.0), containing 1 mM EDTA, 0.5 nM [^3H]PGE2 (154 Ci/mmol; DuPont-New England Nuclear) and 60-100 μg of protein from the 100,000×g membrane fraction. Incubations were conducted for 1 h at room temperature prior to separation of the bound and free radioligand by rapid filtration as previously described (Frey et al., 1993 Eur. J. Mol. Pharmacol., 244, pp 239-250). Residual [3H]PGE2 bound to the filter was quantitated by liquid scintillation counting. Specific binding was defined as the difference between total binding and non-specific binding, determined in the presence of 1 μM PGE2.

EP1 receptor [2] = molecular target: T1, EP1 receptor; assay: Aequorin luminescence assay in pcDNA-EP1-injected Xenopus oocytes; format: cell-based; conditions: for agonist potency from dose-response of aequorin light emission: aequorin-loaded oocytes, FIG. 4E
Method: (§1) FIG. 4A-E—Expression of prostaglandin E2 receptor in Xenopus oocytes. Panel A: An inward Ca^2—dependent Cl^− current (shown as downward deflection) evoked by bath perfusion of 1 μM PGE2. The oocyte was injected with 5 ng of pcDNA-EP1 (Bam) and voltage-clamped at −60 mV. Panel B-D: PGE2-induced light responses in aequorin loaded oocytes. The intensity of aequorin light emission is expressed in relative units and the background emission typically was 0.5-0.7 units units. The PGE2 was injected into the recording cuvette at 10 s at a final concentration indicated on each trace Panel E; Light responses were evoked by different concentrations of PGE2 and PGF2α. Each bar represents the mean±s.e.m. of data from 10 to 15 oocytes from 4 donors. Data are expressed as the percentage of the response observed with 1 μM of PGE2.
Oocytes were taken from adult females of Xenopus laevis using standard surgical procedure (Colman, A., 1984 In: Transcription and Translation—A Practical Approach, IRL Press). To remove follicle cells, oocytes were treated for 2-3 h with freshly made collagenase (2 mg/ml, type 2, Worthington Biochemical Corp., Freehold, N.J.) in Ca^2+-free ND96 solution (ND96 in mM: NaCl 96, KCl 2, MgCl2 1, HEPES 5, Na-pyruvate 2.5, theophylline 0.5, gentamicin […], +1.8 CaCl2, pH 7.6). […] Functional activity was determined by measurement of either agonist-induced Ca^2+-dependent Cl^− current or light emission in oocytes injected with the Ca^2+-specific photoprotein aequorin (J. Blinks, Friday Harbor Photoproteins, Washington), (Giladi and Spindel 1991 Biotechniques, 10, pp 744-747). […] Ligand-containing solution was perfused and the current response was recorded. For the luminometric assay, aequorin-loaded oocytes (100 ng/ooctye) were placed individually in cuvettes containing 0.4 ml ND96 and the light emission provoked by ligand addition was recorded using a Bio-Orbit 1251 luminometer (Fisher Sci. Ltd.).
Functional activity was determined in pcDNA-EP1-injected oocytes using electrophysiological and aequorin luminescence assays. […]

thromboxane receptor = molecular target: T2, thromboxane receptor (Homo sapiens, UniProt P21731); assay: Binding of SQ-29548 in human embryonic kidney 293 cells and membranes transfected with thromboxane-receptor cDNA
T2 construct: use of Vent polymerase (New England Biolabs) enabled amplification of the complete cDNA; expressed in transfected cells; host or cells: human embryonic kidney 293 cells and membranes
T2 sequence (P21731 1-343): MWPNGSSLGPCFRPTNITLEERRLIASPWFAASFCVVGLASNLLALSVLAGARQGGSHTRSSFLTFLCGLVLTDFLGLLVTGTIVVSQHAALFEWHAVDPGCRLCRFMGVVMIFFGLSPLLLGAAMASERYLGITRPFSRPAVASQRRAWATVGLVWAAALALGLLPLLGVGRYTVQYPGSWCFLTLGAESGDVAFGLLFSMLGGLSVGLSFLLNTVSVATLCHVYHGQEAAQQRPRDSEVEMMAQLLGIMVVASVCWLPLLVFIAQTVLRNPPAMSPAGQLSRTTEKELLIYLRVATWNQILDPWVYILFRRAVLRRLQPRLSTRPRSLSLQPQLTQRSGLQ
Text: The thromboxane receptor has been expressed in Xenopus oocytes. It can couple with endogenous signal transduction components to elicit a calcium-activated Cl^− current recorded by electrophysiological measurement using the procedure described by Hirata, M. et al., (1991), Nature, 349, pp. 617. Binding studies have been performed with COS-1 cell membranes transfected by thromboxane receptor cDNA using the ligand S-145 (Hirata, M. et al., (1991), Nature, 349, pp. 617). […] This level of expression is at least 5-10 times higher than in platelet membranes. On a per-cell basis assuming a 10% transfection efficiency, we estimate ≈10^6 binding sites/tranfected cell as compared to ≈1300 sites present on a platelet (Hourani, S. M. O. et al., (1991), Pharmacol. Rev., 43, pp. 243).

EP1 receptor [3] = molecular target: T1, EP1 receptor; assay: Electrophysiological assay (Ca2+-dependent Cl- current) in pcDNA-EP1-injected Xenopus oocytes; format: cell-based; conditions: bath perfusion of 1 μM PGE2, voltage clamped at -60 mV
Method: as §1
Oocytes were taken from adult females of Xenopus laevis using standard surgical procedure (Colman, A., 1984 In: Transcription and Translation—A Practical Approach, IRL Press). […] Functional activity was determined by measurement of either agonist-induced Ca^2+-dependent Cl^− current or light emission in oocytes injected with the Ca^2+-specific photoprotein aequorin (J. Blinks, Friday Harbor Photoproteins, Washington), (Giladi and Spindel 1991 Biotechniques, 10, pp 744-747). […] Ligand-containing solution was perfused and the current response was recorded. […]

SMILES: CCCCC[C@H](O)/C=C/[C@H]1C(=O)C[C@H](O)[C@@H]1C/C=C\CCCC(=O)O [PGD2]
- rank order of potency for competition for [3H]PGE2 specific binding (EP1 receptor [1]): PGE2>PGE1>PGF2α>>PGD2

SMILES: CC(=O)NNC(=O)N1Cc2ccccc2Oc2ccc(Cl)cc21 [SC 19220]
- IC50 (EP1 receptor [1]): ~6.7 µM

SMILES: CC(C)Oc1ccc2c(=O)c3cc(C(=O)O)ccc3oc2c1 [AH 6809]
- IC50 (EP1 receptor [1]): ~0.5 µM

SMILES: CCCCC[C@H](O)/C=C/[C@H]1[C@H](O)CC(=O)[C@@H]1CCCCCCC(=O)O [PGE1]
- rank order of potency for competition for [3H]PGE2 specific binding (EP1 receptor [1]): PGE2>PGE1>PGF2α>>PGD2

SMILES: CCCCC[C@H](O)/C=C/[C@@H]1[C@@H](C/C=C\CCCC(=O)O)[C@@H](O)C[C@H]1O [PGF2α]
- rank order of potency for competition for [3H]PGE2 specific binding (EP1 receptor [1]): PGE2>PGE1>PGF2α>>PGD2
- agonist potency from dose-response of aequorin light emission (EP1 receptor [2]): PGE2 was more potent agonist of the expressed receptor when compared to PGF2α

SMILES: CCCC1([C@H](O)C/C=C/[C@H]2[C@H](O)CC(=O)[C@@H]2CCCCCCC(=O)OC)CCC1 [butaprost]
- IC50 (EP1 receptor [1]): 50 µM
- activity at the [3H]PGE2 specific binding sites (EP1 receptor [1]; FIG. 3B): relatively inactive

SMILES: O=C(O)CCC/C=C\C[C@@H]1[C@H](CNNC(=O)Nc2ccccc2)[C@H]2CC[C@@H]1O2 [SQ-29548]
- binding affinity (thromboxane receptor): high affinity binding
- maximal binding (thromboxane receptor): 2-3 pmol/mg protein

SMILES: CCCCC[C@H](O)/C=C/[C@H]1[C@H](O)CC(=O)[C@@H]1C/C=C\CCCC(=O)O [PGE2]
- rank order of potency for competition for [3H]PGE2 specific binding (EP1 receptor [1]): PGE2>PGE1>PGF2α>>PGD2
- agonist potency from dose-response of aequorin light emission (EP1 receptor [2]): more potent agonist of the expressed receptor when compared to PGF2α
- intracellular calcium in pcDNA-EP1 injected oocytes (EP1 receptor [2]; oocytes challenged with PGE2): dose-dependent increase in intracellular calcium
- Ca2+-dependent Cl- current response (EP1 receptor [3]): prominent current responses

SMILES: CCCCC[C@H](O)/C=C/[C@H]1[C@H](O)CC(=O)[C@@H]1C/C=C\CCCC(=O)O [[^3H]PGE2, [3H]Prostaglandin E2]
- maximum number of specific binding sites (Bmax) (EP1 receptor [1]; Scatchard analysis, pcDNA-EP1 transfected COS-M6 cell membranes): approximately 360 fmol/mg of protein
- Kd (EP1 receptor [1]; Scatchard analysis, pcDNA-EP1 transfected COS-M6 cell membranes, read-out: equilibrium dissociation constant (KD)): 0.001 µM
